Test [1] has as its target T1, G12V-mutant human KRAS (amino acid residues 1-188) (Homo sapiens, UniProt P01116, G12V).
T1 construct: G12V-mutant human KRAS (amino acid residues 1-188) with FLAG tag was purified from E. coli; made in house; host or cells: E. coli
Briefly: KRAS Binding Competition Assay (AlphaScreen; biotinylated KRpep-2d analogue), G12V. The note with it: geometric mean, read-out: KRAS GMean IC50 (uM) MUTATION: G12V. Background: Alpha assays give light when donor and acceptor beads are brought close together.

Test [2] addresses T2, G12D-mutant human KRAS (amino acid residues 1-188) (Homo sapiens, UniProt P01116, G12D).
T2 construct: G12D or G12C-mutant human KRAS (amino acid residues 1-188) with FLAG tag; made in house; host or cells: E. coli
Briefly: KRAS Binding Disruption Assay (AlphaScreen; biotinylated KRpep-2d analogue or RAF1-RBD), G12D. To be noted: KRAS G12D; geometric mean; read-out: KRAS GMean IC50 (uM) MUTATION: G12D. A digest of the protocol: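 Compounds are titrated against 5-20 nM mutant KRAS and 5-20 nM of either a biotinylated KRpep-2d analogue or RAF1-RBD, incubated 1 h at 25° C. Disruption is detected as reduced Alpha signal after 1 h with donor and acceptor beads at 10 μg/mL.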

The results in this text go back to patent US20230081426A1, “COMPOUNDS AND METHODS FOR KRAS MODULATION AND INDICATIONS THEREFOR” (Plexxikon Inc., priority 2020, published 2023).

Usually IC50 stands for the point on the concentration scale where inhibition reaches its midpoint. `O=S(=O)(N[C@@H]1CCNC1)N1[C@@H]2CC[C@H]1CN(c1nc(OCC34CCCN3CCC4)nc3c(F)c(-c4cc(O)cc5ccccc45)ccc13)C2` [P-0284, (1R,5S)-3-(8-fluoro-7-(3-hydroxynaphthalen-1-yl)-2-((tetrahydro-1H-pyrrolizin-7a(5H)-yl)methoxy)quinazolin-4-yl)-N-((R)-pyrrolidin-3-yl)-3,8-diazabicyclo[3.2.1]octane-8-sulfonamide]: the IC50 in test [1] and in test [2] was 0.0001 to 10 µM throughout.
On to `CN1CCC[C@H]1COc1nc(N2[C@@H]3CC[C@H]2CNC3)c2ccc(-c3cccc(O)c3)cc2n1` [P-0285, 3-(4-((1R,5S)-3,8-diazabicyclo[3.2.1]octan-8-yl)-2-(((S)-1-methylpyrrolidin-2-yl)methoxy)quinazolin-7-yl)phenol], for which the IC50 in test [1] and in test [2] was 100 to 1000 µM in each case.
Consider `Cc1c(N)cccc1-c1ccc2c(N3[C@@H]4CC[C@H]3CNC4)nc(OC[C@@H]3CCCN3C)nc2c1` [P-0286, 3-(4-((1R,5S)-3,8-diazabicyclo[3.2.1]octan-8-yl)-2-(((S)-1-methylpyrrolidin-2-yl)methoxy)quinazolin-7-yl)-2-methylaniline], for which the IC50 in test [1] and in test [2] was 10 to 100 µM each time.
`CN(C)CCCS(=O)(=O)N1[C@@H]2CC[C@H]1CN(c1nc(OCC34CCCN3CCC4)nc3c(F)c(-c4cc(O)cc5ccccc45)ccc13)C2` [P-0287, 4-(4-((1R,5S)-8-((3-(dimethylamino)propyl)sulfonyl)-3,8-diazabicyclo[3.2.1]octan-3-yl)-8-fluoro-2-((tetrahydro-1H-pyrrolizin-7a(5H)-yl)methoxy)quinazolin-7-yl)naphthalen-2-ol]: the IC50 in test [1] and in test [2] was 0.0001 to 10 µM each time.
Consider `CN1CCC[C@H]1COc1nc(N2[C@@H]3CC[C@H]2CNC3)c2ccc(-c3c(F)ccc(N)c3F)cc2n1` [P-0288, 3-(4-((1R,5S)-3,8-diazabicyclo[3.2.1]octan-8-yl)-2-(((S)-1-methylpyrrolidin-2-yl)methoxy)quinazolin-7-yl)-2,4-difluoroaniline], for which the IC50 in test [1] and in test [2] was 10 to 100 µM each time.
Take `CN1CCC[C@H]1COc1nc(N2C[C@H]3CC[C@@H](C2)N3)c2ccc(Nc3n[nH]c4ccccc34)cc2n1` [P-0289, 4-((1R,5S)-3,8-diazabicyclo[3.2.1]octan-3-yl)-N-(1H-indazol-3-yl)-2-(((S)-1-methylpyrrolidin-2-yl)methoxy)quinazolin-7-amine]: the IC50 in test [1] and in test [2] was 10 to 100 µM throughout.
On to `CN1CCC[C@H]1COc1nc(N2[C@@H]3CC[C@H]2CNC3)c2ccc(-c3c(O)cccc3Cl)cc2n1` [P-0290, 2-(4-((1R,5S)-3,8-diazabicyclo[3.2.1]octan-8-yl)-2-(((S)-1-methylpyrrolidin-2-yl)methoxy)quinazolin-7-yl)-3-chlorophenol], for which the IC50 in test [1] and in test [2] was 10 to 100 µM throughout.
`Cc1cccc(N)c1-c1ccc2c(N3[C@@H]4CC[C@H]3CNC4)nc(OC[C@@H]3CCCN3C)nc2c1` [P-0291, 2-(4-((1R,5S)-3,8-diazabicyclo[3.2.1]octan-8-yl)-2-(((S)-1-methylpyrrolidin-2-yl)methoxy)quinazolin-7-yl)-3-methylaniline]: the IC50 in test [1] and in test [2] was 10 to 100 µM throughout.
On to `CN1CCC[C@H]1COc1nc(N2[C@@H]3CC[C@H]2CN(C(=O)CC2SC(=O)NC2=O)C3)c2ccc(-c3cc(O)cc4ccccc34)cc2n1` (stereo partly drawn) [P-0292, 5-(2-((1R,5S)-8-(7-(3-hydroxynaphthalen-1-yl)-2-(((S)-1-methylpyrrolidin-2-yl)methoxy)quinazolin-4-yl)-3,8-diazabicyclo[3.2.1]octan-3-yl)-2-oxoethyl)thiazolidine-2,4-dione], for which the IC50 in test [1] and in test [2] was 10 to 100 µM each time.
Consider `CN1CCC[C@H]1COc1nc(N2C[C@H]3CC[C@@H](C2)N3)c2ccc(-c3c[nH]c4ccccc34)c(F)c2n1` [P-0293, 4-((1R,5S)-3,8-diazabicyclo[3.2.1]octan-3-yl)-8-fluoro-7-(1H-indol-3-yl)-2-(((S)-1-methylpyrrolidin-2-yl)methoxy)quinazoline], for which the IC50 lay in the range of 10 to 100 µM in test [1] and 0.0001 to 10 µM in test [2].
In the same order, the values of `CN1CCC[C@H]1COc1nc(N2C[C@H]3CC[C@@H](C2)N3)c2ccc(-c3c[nH]c4cccc(Cl)c34)c(F)c2n1` [P-0294, 4-((1R,5S)-3,8-diazabicyclo[3.2.1]octan-3-yl)-7-(4-chloro-1H-indol-3-yl)-8-fluoro-2-(((S)-1-methylpyrrolidin-2-yl)methoxy)quinazoline] are 10 to 100 µM and 10 to 100 µM.
In the same order, the values of `CN1CCC[C@H]1COc1nc(N2C[C@H]3CC[C@@H](C2)N3)c2ccc(-c3c[nH]c4ccc(Cl)cc34)c(F)c2n1` [P-0295, 4-((1R,5S)-3,8-diazabicyclo[3.2.1]octan-3-yl)-7-(5-chloro-1H-indol-3-yl)-8-fluoro-2-(((S)-1-methylpyrrolidin-2-yl)methoxy)quinazoline] are 100 to 1000 µM and 0.0001 to 10 µM.
In the same order, the values of `CN1CCC[C@H]1COc1nc(N2CC3CCCC2CN3)c2ccc(-c3cc(O)cc4ccccc34)c(F)c2n1` (stereo partly drawn) [P-0296, 4-(4-(6,8-diazabicyclo[3.2.2]nonan-6-yl)-8-fluoro-2-(((S)-1-methylpyrrolidin-2-yl)methoxy)quinazolin-7-yl)naphthalen-2-ol] are 10 to 100 µM and 0.0001 to 10 µM.
`CN1CC[C@@H](NC(=O)N2CC3CCCC2CN3c2nc(OC[C@@H]3CCCN3C)nc3c(F)c(-c4cc(O)cc5ccccc45)ccc23)C1` (stereo partly drawn) [P-0297, 8-(8-fluoro-7-(3-hydroxynaphthalen-1-yl)-2-(((S)-1-methylpyrrolidin-2-yl)methoxy)quinazolin-4-yl)-N-((R)-1-methylpyrrolidin-3-yl)-6,8-diazabicyclo[3.2.2]nonane-6-carboxamide]: the IC50 in test [1] and in test [2] was 0.0001 to 10 µM throughout.
Take `CN1CCC[C@H]1COc1nc(N2CC3CCCC2CN3C(=O)NC2CCOC2)c2ccc(-c3cc(O)cc4ccccc34)c(F)c2n1` (stereo partly drawn) [P-0298, 8-(8-fluoro-7-(3-hydroxynaphthalen-1-yl)-2-(((S)-1-methylpyrrolidin-2-yl)methoxy)quinazolin-4-yl)-N-(tetrahydrofuran-3-yl)-6,8-diazabicyclo[3.2.2]nonane-6-carboxamide]: the IC50 in test [1] and in test [2] was 0.0001 to 10 µM throughout.
For the molecule `CN1CCC[C@H]1COc1nc(N2[C@@H]3CC[C@H]2CNC3)c2ccc(-c3c(N)cccc3Cl)cc2n1` [P-0300, 2-(4-((1R,5S)-3,8-diazabicyclo[3.2.1]octan-8-yl)-2-(((S)-1-methylpyrrolidin-2-yl)methoxy)quinazolin-7-yl)-3-chloroaniline], the IC50 in test [1] and in test [2] was 10 to 100 µM in each case.
Regarding `Oc1cc(-c2ccc3c(N4[C@@H]5CC[C@H]4CNC5)nc(Cc4ccncc4)nc3c2)c2ccccc2c1` [P-0301, 4-(4-((1R,5S)-3,8-diazabicyclo[3.2.1]octan-8-yl)-2-(pyridin-4-ylmethyl)quinazolin-7-yl)naphthalen-2-ol], the IC50 in test [1] and in test [2] was 0.0001 to 10 µM throughout.
For the molecule `CN1CCC[C@H]1COc1nc(N2C[C@H]3CC[C@@H](C2)N3)c2cc(F)c(-c3c(O)cccc3F)c(F)c2n1` [P-0302, 2-(4-((1R,5S)-3,8-diazabicyclo[3.2.1]octan-3-yl)-6,8-difluoro-2-(((S)-1-methylpyrrolidin-2-yl)methoxy)quinazolin-7-yl)-3-fluorophenol], the IC50 in test [1] fell in the range of 10 to 100 µM; in test [2], 0.0001 to 10 µM.
With `Cc1ccc2[nH]ncc2c1-c1c(F)cc2c(N3C[C@H]4CC[C@@H](C3)N4)nc(OC[C@@H]3CCCN3C)nc2c1F` [P-0303, 4-((1R,5S)-3,8-diazabicyclo[3.2.1]octan-3-yl)-6,8-difluoro-7-(5-methyl-1H-indazol-4-yl)-2-(((S)-1-methylpyrrolidin-2-yl)methoxy)quinazoline], the figures for the IC50 in test [1] and in test [2] were 10 to 100 µM and 0.0001 to 10 µM, respectively.
In the case of `CN1CCC[C@H]1COc1nc(N2[C@@H]3CC[C@H]2CNC3)c2ccc(-c3cc(CO)cc4ccccc34)cc2n1` [P-0304, (4-(4-((1R,5S)-3,8-diazabicyclo[3.2.1]octan-8-yl)-2-(((S)-1-methylpyrrolidin-2-yl)methoxy)quinazolin-7-yl)naphthalen-2-yl)methanol], the IC50 in test [1] and in test [2] was 10 to 100 µM throughout.
In the case of `CN1CCC[C@H]1COc1nc(N2C[C@H]3CC[C@@H](C2)N3)c2cc(F)c(N3CCNc4ccccc43)c(F)c2n1` [P-0305, 4-((1R,5S)-3,8-diazabicyclo[3.2.1]octan-3-yl)-7-(3,4-dihydroquinoxalin-1(2H)-yl)-6,8-difluoro-2-(((S)-1-methylpyrrolidin-2-yl)methoxy)quinazoline], the IC50 in test [1] was in the range of 10 to 100 µM; in test [2], 0.0001 to 10 µM.
The matching figures for `CN1CCC[C@H]1COc1nc(N2C[C@H]3CC[C@@H](C2)N3)c2ccc(N3CCNc4ccccc43)c(F)c2n1` [P-0306, 4-((1R,5S)-3,8-diazabicyclo[3.2.1]octan-3-yl)-7-(3,4-dihydroquinoxalin-1(2H)-yl)-8-fluoro-2-(((S)-1-methylpyrrolidin-2-yl)methoxy)quinazoline]: 10 to 100 µM and 0.0001 to 10 µM.
In the same order, the values of `CN1CCC[C@H]1COc1nc(N2C[C@H]3CC[C@@H](C2)N3)c2ccc(N3CC(O)Cc4ccccc43)c(F)c2n1` (stereo partly drawn) [P-0307, 1-(4-((1R,5S)-3,8-diazabicyclo[3.2.1]octan-3-yl)-8-fluoro-2-(((S)-1-methylpyrrolidin-2-yl)methoxy)quinazolin-7-yl)-1,2,3,4-tetrahydroquinolin-3-ol] are 10 to 100 µM and 0.0001 to 10 µM.
